Our source for the Activity and viability values is ChEMBL document CHEMBL4261498, “Synthesis, characterization, and radioprotective activity of α,β-unsaturated aryl sulfone analogs and their Tempol conjugates” (Medchemcomm, 2017).

The subject of series [1] is HUVEC. Nature of the series: Radioprotective activity against 5 Gy gamma radiation-mediated cell damage in HUVEC assessed as late apoptotic cells at 0.1 uM preincubated for 2 hrs followed by 5 Gy gamma irradiation and measured after 24 hrs by annexin-V-FITC/propidium iodide staining-based flow cytometric method (reference value: 9.5%). The format is functional, Homo sapiens. Background: Flow cytometry measures light scatter and fluorescence of single cells or particles in a stream.

Series [2] relates to HUVEC. Briefly: Cytotoxicity against HUVEC after 24 hrs by MTT assay. The class given is cell-based. The following applies: human. (Formazan colour is commonly taken as a measure of viable cells.)
The test system of series [3] is HUVEC. Briefly: Radioprotective activity against 5 Gy gamma radiation-mediated cell damage in HUVEC assessed as early apoptotic cells at 10 uM preincubated for 2 hrs followed by 5 Gy gamma irradiation and measured after 24 hrs by annexin-V-FITC/propidium iodide staining-based flow cytometric method (reference value: 21.2%). The class given is functional, Homo sapiens.

Series [4] relates to HUVEC. Briefly: Radioprotective activity against 5 Gy gamma radiation-mediated cell damage in HUVEC assessed as reduction of total p53 levels at 0.1 to 10 uM by Western blot method. The class given is functional, cell-based. The following applies: Homo sapiens. For orientation: Immunoblotting shows a protein as a band on a membrane.
In series [5] the test system is HUVEC. Nature of the series: Radioprotective activity against 5 Gy gamma radiation-mediated cell damage in HUVEC assessed as decrease in Bax levels at 0.1 to 10 uM by Western blot method. The format is functional, cell-based. The following applies: Homo sapiens.
The test system of series [6] is HUVEC. Briefly: Radioprotective activity against 5 Gy gamma radiation-mediated cell damage in HUVEC assessed as viable cells at 0.1 uM preincubated for 2 hrs followed by 5 Gy gamma irradiation and measured after 24 hrs by annexin-V-FITC/propidium iodide staining-based flow cytometric method (reference value: 65.8%). The class given is functional. Particulars: Homo sapiens, light or radiation study, read-out: Activity.

Series [7] deals with HUVEC. Briefly: Radioprotective activity against 5 Gy gamma radiation-mediated cell damage in HUVEC assessed as increase in Bcl-2 levels at 0.1 to 10 uM by Western blot method. The format is functional, cell-based. The following applies: Homo sapiens.
Series [8] relates to HUVEC. Briefly: Radioprotective activity against 5 Gy gamma radiation-mediated cell damage in HUVEC assessed as late apoptotic cells at 10 uM preincubated for 2 hrs followed by 5 Gy gamma irradiation and measured after 24 hrs by annexin-V-FITC/propidium iodide staining-based flow cytometric method (reference value: 9.5%). The class given is functional, Homo sapiens.
In series [9] the test system is HUVEC. Nature of the series: Radioprotective activity against 5 Gy gamma radiation-mediated cell damage in HUVEC assessed as early apoptotic cells at 0.1 uM preincubated for 2 hrs followed by 5 Gy gamma irradiation and measured after 24 hrs by annexin-V-FITC/propidium iodide staining-based flow cytometric method (reference value: 21.2%). The class given is functional, Homo sapiens.

The test system of series [10] is HUVEC. Briefly: Radioprotective activity against 5 Gy gamma radiation-mediated cell damage in HUVEC assessed as late apoptotic cells at 1 uM preincubated for 2 hrs followed by 5 Gy gamma irradiation and measured after 24 hrs by annexin-V-FITC/propidium iodide staining-based flow cytometric method (reference value: 9.5%). The class given is functional, Homo sapiens.

Series [11] concerns HUVEC. Briefly: Radioprotective activity against 5 Gy gamma radiation-mediated cell damage in HUVEC assessed as viable cells at 1 uM preincubated for 2 hrs followed by 5 Gy gamma irradiation and measured after 24 hrs by annexin-V-FITC/propidium iodide staining-based flow cytometric method (reference value: 65.8%). The format is functional. Particulars: Homo sapiens, light or radiation study, read-out: Activity.

Series [12] has as its system HUVEC. Briefly: Radioprotective activity against 5 Gy gamma radiation-mediated cell damage in HUVEC assessed as cell survival at 0.1 uM preincubated for 2 hrs followed by 5 Gy gamma irradiation and measured after 48 hrs by MTT assay relative to control. The format is functional. The following applies: Homo sapiens, light or radiation study, read-out: Survival.
Series [13] relates to HUVEC. Briefly: Radioprotective activity against 5 Gy gamma radiation-mediated cell damage in HUVEC assessed as early apoptotic cells at 1 uM preincubated for 2 hrs followed by 5 Gy gamma irradiation and measured after 24 hrs by annexin-V-FITC/propidium iodide staining-based flow cytometric method (reference value: 21.2%). The format is functional, Homo sapiens.
For series [14], the system named is HUVEC. Nature of the series: Radioprotective activity against 5 Gy gamma radiation-mediated cell damage in HUVEC assessed as reduction of phopsho-p53 levels at 0.1 to 10 uM by Western blot method. The class given is functional, cell-based. Particulars: Homo sapiens.
Series [15] relates to HUVEC. Briefly: Radioprotective activity against 5 Gy gamma radiation-mediated cell damage in HUVEC assessed as necrotic cells at 10 uM preincubated for 2 hrs followed by 5 Gy gamma irradiation and measured after 24 hrs by annexin-V-FITC/propidium iodide staining-based flow cytometric method (reference value: 3.5%). The format is functional, Homo sapiens.
The test system of series [16] is HUVEC. Briefly: Radioprotective activity against 5 Gy gamma radiation-mediated cell damage in HUVEC assessed as decrease in caspase-3 activation at 0.1 to 10 uM by Western blot method. The class given is functional, cell-based. The following applies: Homo sapiens.
In series [17] the test system is HUVEC. Briefly: Radioprotective activity against 5 Gy gamma radiation-mediated cell damage in HUVEC assessed as necrotic cells at 0.1 uM preincubated for 2 hrs followed by 5 Gy gamma irradiation and measured after 24 hrs by annexin-V-FITC/propidium iodide staining-based flow cytometric method (reference value: 3.5%). The class given is functional, Homo sapiens.

Series [18] concerns HUVEC. Briefly: Radioprotective activity against 5 Gy gamma radiation-mediated cell damage in HUVEC assessed as necrotic cells at 1 uM preincubated for 2 hrs followed by 5 Gy gamma irradiation and measured after 24 hrs by annexin-V-FITC/propidium iodide staining-based flow cytometric method (reference value: 3.5%). The class given is functional, Homo sapiens.
The test system of series [19] is HUVEC. Nature of the series: Radioprotective activity against 5 Gy gamma radiation-mediated cell damage in HUVEC assessed as viable cells at 10 uM preincubated for 2 hrs followed by 5 Gy gamma irradiation and measured after 24 hrs by annexin-V-FITC/propidium iodide staining-based flow cytometric method (reference value: 65.8%). The format is functional. The following applies: Homo sapiens, light or radiation study, read-out: Activity.

For series [20], the system named is HUVEC. Nature of the series: Radioprotective activity against 5 Gy gamma radiation-mediated cell damage in HUVEC assessed as increase in cell survival at 0.1 to 10 uM after 48 hrs by MTT assay. The format is functional, cell-based. The following applies: Homo sapiens.

The source made the active and inactive calls. The calls are words filed in the database; no cut-off is given here.

As for `O=C(O)c1ccc(/C=C/S(=O)(=O)Cc2ccc(OC(F)(F)F)cc2)cc1`, the Activity is on record as 4.7% with HUVEC [1]; “Toxic” with HUVEC [2]; 7% in the series on HUVEC [3]; 8.1% in the series with HUVEC [8]; 7.8% with HUVEC [9]; 6.2% with HUVEC [10]. The Activity turned out to be 8.5% in the series with HUVEC [13], 3% with HUVEC [15], 4.3% in the series on HUVEC [17] and 3.4% in the series on HUVEC [18]. Also, the result in the series with HUVEC [4], in the series with HUVEC [5], in the series on HUVEC [7], with HUVEC [14], in the series on HUVEC [16] and in the series on HUVEC [20] was Active. The viability at 0.1 µM worked out at 83.3% with HUVEC [6] and 50% with HUVEC [12]. Besides, the viability at 1 µM in the series on HUVEC [11] was 81.9%. In addition, in the series with HUVEC [19], the viability at 10 µM turned out to be 81.9%.
